Target: T1, STAT3 (signal transducer and activator of transcription 3) (Homo sapiens, UniProt P40763)
T1 construct: Recombinant human STAT3 protein
Test: SPR, STAT3 immobilized on C5 sensor chip, PSD-A […]
Type: binding

T1 sequence (P40763 2-770): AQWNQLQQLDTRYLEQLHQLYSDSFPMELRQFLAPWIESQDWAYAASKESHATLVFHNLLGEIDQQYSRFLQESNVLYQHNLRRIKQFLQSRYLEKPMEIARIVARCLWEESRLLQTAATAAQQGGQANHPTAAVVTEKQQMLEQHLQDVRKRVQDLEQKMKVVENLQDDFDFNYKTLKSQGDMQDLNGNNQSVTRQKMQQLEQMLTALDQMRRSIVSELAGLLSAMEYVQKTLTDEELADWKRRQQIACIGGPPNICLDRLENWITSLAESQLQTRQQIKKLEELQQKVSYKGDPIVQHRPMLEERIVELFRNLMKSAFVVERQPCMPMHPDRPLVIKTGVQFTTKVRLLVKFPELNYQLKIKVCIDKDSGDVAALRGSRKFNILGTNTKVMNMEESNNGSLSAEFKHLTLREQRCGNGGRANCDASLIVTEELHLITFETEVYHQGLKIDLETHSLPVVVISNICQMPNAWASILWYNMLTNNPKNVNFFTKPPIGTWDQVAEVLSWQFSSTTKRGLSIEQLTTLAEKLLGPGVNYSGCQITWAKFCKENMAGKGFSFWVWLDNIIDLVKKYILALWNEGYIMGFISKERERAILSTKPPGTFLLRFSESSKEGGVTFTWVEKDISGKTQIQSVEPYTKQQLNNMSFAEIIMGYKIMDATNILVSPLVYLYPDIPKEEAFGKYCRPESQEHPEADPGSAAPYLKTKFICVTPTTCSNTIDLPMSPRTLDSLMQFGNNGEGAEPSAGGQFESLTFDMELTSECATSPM

Work on C[C@@H]1O[C@@H](O[C@@H]2C=C3CC[C@@H]4[C@H](CC[C@]5(C)[C@@H](c6ccc(=O)oc6)CC[C@]45O)[C@@]3(C)CC2)[C@H](O)[C@H](O)[C@H]1O [PSD-A, Proscillaridin A] yielded a Kd of ~160 nM.
